Values after ≈ are worked out from the molar mass of the structure shown. Active and inactive are the calls of the source. The calls are words filed in the database; no cut-off is given here.
Experiments:
[1] = system: Leishmania donovani; assay: Anti-leishmanial activity against promastigote stage of Leishmania donovani MHOM/IN/Dd8 harboring luciferase gene at 12.5 ug/ml after 72 hrs by luminescence assay relative to control; type: functional; settings: for inhibition at 12.5 µg/mL: MHOM/IN/Dd8, 72 h
[2] = system: Leishmania donovani; assay: Anti-leishmanial activity against intracellular amastigote stage of Leishmania donovani harboring luciferase gene infected in mouse J774A1 cells at 12.5 ug/ml after 72 hrs by luminescence assay relative to control; type: functional; settings: for inhibition at 12.5 µg/mL: J774.A1, 72 h
[3] = Cytotoxicity against mouse J774A1 cells after 72 hrs by MTT assay; type: cell-based, J774.A1

SMILES: CC(=O)SC(SC(C)=O)c1cn(CCCCCN2CCN(c3ccccc3)CC2)c2ccccc12
- inhibition at 12.5 µg/mL [1]: 60.1%
- inhibition at 12.5 µg/mL [2]: 86.8%
- CC50 at 72 h [3]: 13.8 µg/mL (≈ 27.1 µM)

SMILES: CC(=O)SC(SC(C)=O)c1cn(C)c2ccccc12
- inhibition at 12.5 µg/mL [1]: 31%

SMILES: CCCCn1cc(C(SC(C)=O)SC(C)=O)c2ccccc21
- inhibition at 12.5 µg/mL [1]: 74%

SMILES: CC(=O)SC(SC(C)=O)c1cn(CCCCOc2ccc(C#N)cc2)c2ccccc12
- inhibition at 12.5 µg/mL [1]: 90.9%
- inhibition at 12.5 µg/mL [2]: 97.8%
- CC50 at 72 h [3]: > 100 µg/mL

SMILES: CC(=O)SC(SC(C)=O)c1cn(CCCCCCOc2ccc(C#N)cc2)c2ccccc12
- inhibition at 12.5 µg/mL [1]: 91.6%
- inhibition at 12.5 µg/mL [2]: 40.2%
- CC50 at 72 h [3]: > 100 µg/mL

SMILES: N#Cc1ccc(OCCCCCn2cc(C=O)c3ccccc32)cc1
- inhibition [1]: inactive
- inhibition [2]: inactive

SMILES: CC(=O)SC(SC(C)=O)c1cn(CCCCCOc2ccc(C#N)cc2)c2ccccc12
- inhibition at 12.5 µg/mL [1]: 96%
- inhibition at 12.5 µg/mL [2]: 99.8%
- CC50 at 72 h [3]: > 100 µg/mL

— ChEMBL document CHEMBL4043229, “gem-Dithioacetylated indole derivatives as novel antileishmanial agents” (Bioorg Med Chem Lett, 2017)
